Data set [1] deals with Dipeptidyl peptidase 1 (Homo sapiens, UniProt P53634). Kind of data set: Inhibition of human recombinant Cathepsin C using Gly-Phe-AFC as substrate preincubated for 3 hrs followed by substrate addition and measured after 1 hr by fluorescence based multifunctional microplate reader analysis.
Data set [2] is described as follows: Tmax in male Sprague-Dawley rat at 10 mg/kg, po measured at 5 to 1440 mins by LC-MS/MS analysis. Format: ADME, organism-based. The following applies: in vivo, time 5-1440 min.
The nature of data set [3]: Cmax in male Sprague-Dawley rat at 10 mg/kg, po measured at 5 to 1440 mins by LC-MS/MS analysis. The data set is classed as ADME, organism-based. The following applies: in vivo, time 5-1440 min.
Data set [4] is described as follows: Oral bioavailability in male Sprague-Dawley rat at 10 mg/kg measured at 5 to 1440 mins by LC-MS/MS analysis. The following applies: in vivo, time 5-1440 min. Format: ADME, organism-based.
Data set [5] has as its target T1, Dipeptidyl peptidase 1 (Mus musculus) (UniProt P97821).
T1 sequence (whole entry): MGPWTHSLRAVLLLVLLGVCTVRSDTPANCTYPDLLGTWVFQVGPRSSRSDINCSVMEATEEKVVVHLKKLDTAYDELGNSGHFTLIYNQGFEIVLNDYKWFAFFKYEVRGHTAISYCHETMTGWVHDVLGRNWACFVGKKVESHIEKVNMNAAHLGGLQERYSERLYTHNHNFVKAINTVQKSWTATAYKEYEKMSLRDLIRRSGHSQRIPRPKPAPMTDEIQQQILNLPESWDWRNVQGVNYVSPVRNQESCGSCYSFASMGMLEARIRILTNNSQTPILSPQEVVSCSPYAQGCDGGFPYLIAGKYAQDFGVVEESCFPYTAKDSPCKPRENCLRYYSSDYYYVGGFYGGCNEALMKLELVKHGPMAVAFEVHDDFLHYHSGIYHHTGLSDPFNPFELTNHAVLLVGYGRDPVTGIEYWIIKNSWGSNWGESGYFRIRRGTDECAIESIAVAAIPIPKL
Kind of data set: In vivo inhibition of Cathepsin C in C57BL/6 mouse assessed as reduction in cathepsin C activity in bone marrow at 15 mg/kg, po administered once daily for 6 days by fluorescence based microplate reader relative to control. The data set is classed as functional, organism-based. The following applies: time 6.0 day.

Data set [6] deals with T1, Dipeptidyl peptidase 1 (Mus musculus). Briefly: In vivo inhibition of Cathepsin C in C57BL/6 mouse assessed as reduction in cathepsin C activity in blood administered orally once daily for 6 days by fluorescence based microplate reader. Format: functional, organism-based. The following applies: dose 5-30 mg/kg, route po, time 6.0 day.
The target of data set [7] is T2, Cathepsin G (Mus musculus) (UniProt P28293).
T2 sequence (whole entry): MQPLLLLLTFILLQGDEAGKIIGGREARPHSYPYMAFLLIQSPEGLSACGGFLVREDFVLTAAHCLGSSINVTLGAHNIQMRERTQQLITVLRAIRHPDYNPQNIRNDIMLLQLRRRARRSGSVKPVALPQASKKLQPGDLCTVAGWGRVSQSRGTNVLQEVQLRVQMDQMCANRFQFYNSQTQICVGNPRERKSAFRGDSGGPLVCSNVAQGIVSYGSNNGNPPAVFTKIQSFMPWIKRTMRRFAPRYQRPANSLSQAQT
Kind of data set: In vivo inhibition of Cathepsin G in C57BL/6 mouse assessed as reduction in cathepsin G activity in blood at 30 mg/kg, po administered once daily for 6 days by fluorescence based microplate reader relative to control. The data set is classed as functional, organism-based. The following applies: time 6.0 day.

Data set [8] concerns the target T2, Cathepsin G (Mus musculus). Kind of data set: In vivo inhibition of Cathepsin G in C57BL/6 mouse assessed as reduction in cathepsin G activity in bone marrow at 30 mg/kg, po administered once daily for 6 days by fluorescence based microplate reader relative to control. The data set is classed as functional, organism-based. The following applies: time 6.0 day.

Data set [9] has as its system RAW264.7. Briefly: Anti-inflammatory activity in LPS-stimulated mouse RAW264.7 cells assessed as reduction in IL-6 production incubated for 24 hrs by ELISA. The data set is classed as functional, cell-based. The following applies: dose 0.62-5 µM. A general note: ELISA stands for enzyme-linked immunosorbent assay.
The test system of data set [10] is Mus musculus. Briefly: Anti-inflammatory activity in DSS-induced ulcerative colitis male C57BL/6 mouse model assessed as reduction in inflammatory cell infiltration in colon at 60 mg/kg administered via gavage for 10 days by H and E staining based analysis. The data set is classed as functional, organism-based. The following applies: time 10.0 day.
Data set [11] relates to Mus musculus. Kind of data set: Anti-inflammatory activity in DSS-induced ulcerative colitis male C57BL/6 mouse model assessed as reduction in TNF-alpha expression in colon administered via gavage for 10 days by ELISA. The data set is classed as functional, organism-based. The following applies: dose 15-60 mg/kg, time 10.0 day.
In data set [12] the test system is Mus musculus. Kind of data set: Anti-inflammatory activity in DSS-induced ulcerative colitis male C57BL/6 mouse model assessed as reduction in IL-6 expression in colon administered via gavage for 10 days by ELISA. The data set is classed as functional, organism-based. The following applies: dose 15-60 mg/kg, time 10.0 day.
Data set [13] deals with Mus musculus. Briefly: Anti-inflammatory activity in DSS-induced ulcerative colitis male C57BL/6 mouse model assessed as reduction in GM-CSF expression in colon administered via gavage for 10 days by ELISA. Format: functional, organism-based. The following applies: dose 15-60 mg/kg, time 10.0 day.
Data set [14] deals with Mus musculus. Briefly: Anti-inflammatory activity in DSS-induced ulcerative colitis male C57BL/6 mouse model assessed as reduction in Cathepsin C level in serum at 60 mg/kg administered via gavage for 10 days relative to control. Format: functional. On the set-up: scale not given: the % may be the effect or the level left. The following applies: time 10 day.
The subject of data set [15] is Mus musculus. Kind of data set: Anti-inflammatory activity in DSS-induced ulcerative colitis male C57BL/6 mouse model assessed as reduction in Cathepsin G level in serum at 60 mg/kg administered via gavage for 10 days relative to control. The data set is classed as functional. On the set-up: scale not given: the % may be the effect or the level left. The following applies: time 10 day.

In data set [16] the target is T3, Neutrophil elastase (Mus musculus) (UniProt Q3UP87).
T3 sequence (whole entry): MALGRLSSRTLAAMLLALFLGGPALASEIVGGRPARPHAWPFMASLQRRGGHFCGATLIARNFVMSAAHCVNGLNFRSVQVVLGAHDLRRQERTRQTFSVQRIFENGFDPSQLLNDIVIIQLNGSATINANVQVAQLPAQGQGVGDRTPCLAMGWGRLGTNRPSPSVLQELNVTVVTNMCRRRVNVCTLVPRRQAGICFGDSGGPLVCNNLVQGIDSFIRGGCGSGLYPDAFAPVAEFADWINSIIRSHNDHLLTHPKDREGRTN
Kind of data set: In vivo inhibition of neutrophil elastase in C57BL/6 mouse assessed as reduction in neutrophil elastase activity in blood administered orally once daily for 6 days by fluorescence based microplate reader. Format: functional, organism-based. The following applies: dose 5-30 mg/kg, route po, time 6.0 day.

Data set [17] addresses T3, Neutrophil elastase (Mus musculus). Briefly: In vivo inhibition of neutrophil elastase in C57BL/6 mouse assessed as reduction in neutrophil elastase activity in bone marrow administered orally once daily for 6 days by fluorescence based microplate reader. The following applies: dose 5-30 mg/kg, route po, time 6.0 day. The data set is classed as functional, organism-based.

Data set [18] has as its system Mus musculus. Briefly: Anti-inflammatory activity in DSS-induced ulcerative colitis male C57BL/6 mouse model assessed as decrease in body weight loss at 15 mg/kg administered via gavage for 10 days. The data set is classed as functional, organism-based. The following applies: time 10.0 day.
In data set [19] the test system is Mus musculus. Briefly: Anti-inflammatory activity in DSS-induced ulcerative colitis male C57BL/6 mouse model assessed as reduction in proteinase 3 level in colon at 15 to 30 mg/kg administered via gavage for 10 days. Format: functional, organism-based. The following applies: dose 15-30 mg/kg, time 10.0 day.

Activity calls are given as the source filed them. The rule behind the calls is not given here. Some results are limits rather than exact numbers.

Data on 1 compound can be found in ChEMBL document CHEMBL6092168, “Identification of novel indolinone derivatives as CTSC inhibitors to treat inflammatory bowel disease by modulating inflammatory factors” (Eur J Med Chem, 2024).

Dipeptidyl peptidase 1, sequence (P53634 25-134 limits assumed): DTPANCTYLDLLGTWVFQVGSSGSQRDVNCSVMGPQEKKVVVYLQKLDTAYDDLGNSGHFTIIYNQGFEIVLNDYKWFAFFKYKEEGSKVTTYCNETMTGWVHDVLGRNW
Dipeptidyl peptidase 1, sequence (P53634 231-394 limits assumed): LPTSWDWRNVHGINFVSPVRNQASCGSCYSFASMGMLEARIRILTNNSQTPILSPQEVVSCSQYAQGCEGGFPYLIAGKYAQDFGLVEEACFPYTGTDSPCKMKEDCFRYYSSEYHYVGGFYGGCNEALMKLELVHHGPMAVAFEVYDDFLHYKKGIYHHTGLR
Dipeptidyl peptidase 1, sequence (P53634 395-463 limits assumed): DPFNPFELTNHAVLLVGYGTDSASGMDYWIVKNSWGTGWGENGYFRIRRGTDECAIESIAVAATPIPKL

As a reminder, the IC50 is the concentration at which inhibition is half-maximal. One may read the Tmax as the time from dosing to the highest level. A word on the Cmax: it is the maximum level reached in the sampled fluid or tissue. By inhibition is commonly meant the drop in the measured response relative to a control, in per cent. Turning to `O=C1Nc2c(cccc2-c2ccc(NC3CCOCC3)cc2)/C1=C/c1ccnc2ccccc12`, the concentration for half-maximal inhibition (IC50) in data set [1] came out at 84.3 nM. For the same compound, the Tmax in [2] worked out at 39.6 min. Also, the maximum concentration (Cmax) in data set [3] was determined as 158 ng/mL. This compound also gave a F in data set [4] of 29.05%. In addition, the inhibition in [5] is less than 50%; in [6], “Dose-dependent-effect”; in data set [7] it was 39.5%; in data set [8], 55.2%; in data set [16], “Dose-dependent-effect”; in data set [17], “Dose-dependent-effect”. Further, the Activity entry in [9] is “Dose-dependent-effect”; in data set [12] it was “Dose-dependent-effect; Significant Reduction Observed In High Dose Group”; in data set [13], “Dose-dependent-effect; Significant Reduction Observed In High Dose Group”; in data set [14], 37%; in data set [15] it was 40%; in data set [18], “Active; Weight Loss Was Lower Than In Mesalazine Group”. For the same compound, the outcome in data set [10] and in [11] was Active. The result in [19] was inactive.
